Key:
Assay in all cases: Z'-LYTE kinase panel
Format in all cases: biochemical
[1] = biological target: T1, MAPKAPK2 (Homo sapiens, UniProt P49137)
T1 construct: purchased ThermoFisher (SelectScreen, Z'-LYTE)
Outline: (§1)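 Standard Z′-LYTE protocol applied. Compound fixed at 10 µM. Output: % inhibition. Panel size 225 kinases.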

[2] = biological target: T2, CSNK2A2 (CK2 alpha 2) (Homo sapiens, UniProt P19784)
T2 construct: purchased ThermoFisher (SelectScreen, Z'-LYTE)
Outline: as §1

[3] = biological target: T3, PIM1 (Homo sapiens, UniProt P11309)
T3 construct: purchased ThermoFisher (SelectScreen, Z'-LYTE)
T3 sequence (P11309 whole entry): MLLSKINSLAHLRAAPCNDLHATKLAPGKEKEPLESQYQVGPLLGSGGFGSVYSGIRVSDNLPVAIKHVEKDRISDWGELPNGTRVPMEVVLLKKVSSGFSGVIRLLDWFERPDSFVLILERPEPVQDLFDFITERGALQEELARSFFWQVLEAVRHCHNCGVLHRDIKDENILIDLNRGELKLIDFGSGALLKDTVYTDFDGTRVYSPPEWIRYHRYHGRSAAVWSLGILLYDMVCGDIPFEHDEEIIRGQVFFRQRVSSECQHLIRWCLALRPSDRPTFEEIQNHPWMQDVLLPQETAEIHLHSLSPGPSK
Outline: as §1

[4] = biological target: T4, DYRK4 (Homo sapiens, UniProt Q9NR20)
T4 construct: purchased ThermoFisher (SelectScreen, Z'-LYTE)
T4 sequence (Q9NR20 1-520): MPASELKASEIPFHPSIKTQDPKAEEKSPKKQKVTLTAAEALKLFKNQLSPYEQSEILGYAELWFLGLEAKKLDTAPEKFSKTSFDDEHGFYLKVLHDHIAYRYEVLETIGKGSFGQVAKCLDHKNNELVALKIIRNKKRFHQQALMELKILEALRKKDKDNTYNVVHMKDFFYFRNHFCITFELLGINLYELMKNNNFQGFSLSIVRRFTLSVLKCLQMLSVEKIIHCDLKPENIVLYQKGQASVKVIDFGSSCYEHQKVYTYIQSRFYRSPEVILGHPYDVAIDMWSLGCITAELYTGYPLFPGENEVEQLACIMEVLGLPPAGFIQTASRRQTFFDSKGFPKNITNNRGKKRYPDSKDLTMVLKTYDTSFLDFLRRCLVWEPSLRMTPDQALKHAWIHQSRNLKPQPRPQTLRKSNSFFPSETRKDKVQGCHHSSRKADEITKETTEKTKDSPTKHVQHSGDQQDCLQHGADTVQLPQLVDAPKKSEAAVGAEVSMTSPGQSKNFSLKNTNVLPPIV
Outline: as §1

[5] = biological target: T5, HIPK1 (Myak) (Homo sapiens, UniProt Q86Z02)
T5 construct: purchased ThermoFisher (SelectScreen, Z'-LYTE)
Outline: as §1

[6] = biological target: T6, ABL1 (Homo sapiens, UniProt P00519)
T6 construct: purchased ThermoFisher (SelectScreen, Z'-LYTE)
T6 sequence (P00519 whole entry): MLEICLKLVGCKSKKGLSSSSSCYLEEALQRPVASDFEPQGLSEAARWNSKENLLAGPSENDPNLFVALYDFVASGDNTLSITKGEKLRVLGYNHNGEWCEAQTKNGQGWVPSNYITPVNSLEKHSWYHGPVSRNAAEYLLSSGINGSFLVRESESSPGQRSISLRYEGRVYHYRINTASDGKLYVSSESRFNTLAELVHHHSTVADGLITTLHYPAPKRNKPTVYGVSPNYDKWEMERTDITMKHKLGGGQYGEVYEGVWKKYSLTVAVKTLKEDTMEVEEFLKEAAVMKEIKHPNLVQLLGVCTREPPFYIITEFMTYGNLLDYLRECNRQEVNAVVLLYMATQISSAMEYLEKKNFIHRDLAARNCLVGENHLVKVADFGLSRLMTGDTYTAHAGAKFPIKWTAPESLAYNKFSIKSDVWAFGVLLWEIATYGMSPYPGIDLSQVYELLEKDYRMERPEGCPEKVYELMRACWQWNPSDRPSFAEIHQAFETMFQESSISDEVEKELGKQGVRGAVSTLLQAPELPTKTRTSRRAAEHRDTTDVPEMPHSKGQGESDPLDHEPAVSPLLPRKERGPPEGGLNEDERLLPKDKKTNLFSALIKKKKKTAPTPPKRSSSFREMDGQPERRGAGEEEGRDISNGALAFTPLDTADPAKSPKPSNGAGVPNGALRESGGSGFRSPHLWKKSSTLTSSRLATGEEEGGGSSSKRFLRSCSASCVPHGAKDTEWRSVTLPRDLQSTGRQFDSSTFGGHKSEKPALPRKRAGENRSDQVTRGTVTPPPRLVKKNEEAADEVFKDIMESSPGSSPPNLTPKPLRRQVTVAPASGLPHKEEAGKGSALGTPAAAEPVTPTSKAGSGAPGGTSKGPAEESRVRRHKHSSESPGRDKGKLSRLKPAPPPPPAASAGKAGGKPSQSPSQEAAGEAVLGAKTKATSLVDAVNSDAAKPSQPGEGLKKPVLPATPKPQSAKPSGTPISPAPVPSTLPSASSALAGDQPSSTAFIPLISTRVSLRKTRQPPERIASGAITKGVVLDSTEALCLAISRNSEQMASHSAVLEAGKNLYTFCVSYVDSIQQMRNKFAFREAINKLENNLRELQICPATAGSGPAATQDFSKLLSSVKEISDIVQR
Outline: as §1

[7] = biological target: T7, FRAP1 (mTOR) (Homo sapiens, UniProt P42345)
T7 construct: purchased ThermoFisher (SelectScreen, Z'-LYTE)
Outline: as §1

[8] = biological target: T8, NEK7 (Homo sapiens, UniProt Q8TDX7)
T8 construct: purchased ThermoFisher (SelectScreen, Z'-LYTE)
T8 sequence (Q8TDX7 whole entry): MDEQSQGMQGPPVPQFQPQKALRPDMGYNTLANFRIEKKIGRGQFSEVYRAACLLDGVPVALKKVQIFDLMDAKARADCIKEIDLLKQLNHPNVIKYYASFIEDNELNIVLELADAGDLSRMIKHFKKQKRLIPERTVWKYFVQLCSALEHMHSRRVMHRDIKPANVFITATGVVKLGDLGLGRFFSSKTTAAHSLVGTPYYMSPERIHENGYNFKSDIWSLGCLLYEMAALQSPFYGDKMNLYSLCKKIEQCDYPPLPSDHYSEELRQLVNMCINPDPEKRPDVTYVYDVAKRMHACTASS
Outline: as §1

[9] = biological target: T9, PDGFRB (PDGFR beta) (Homo sapiens, UniProt P09619)
T9 construct: purchased ThermoFisher (SelectScreen, Z'-LYTE)
T9 sequence (P09619 33-1106): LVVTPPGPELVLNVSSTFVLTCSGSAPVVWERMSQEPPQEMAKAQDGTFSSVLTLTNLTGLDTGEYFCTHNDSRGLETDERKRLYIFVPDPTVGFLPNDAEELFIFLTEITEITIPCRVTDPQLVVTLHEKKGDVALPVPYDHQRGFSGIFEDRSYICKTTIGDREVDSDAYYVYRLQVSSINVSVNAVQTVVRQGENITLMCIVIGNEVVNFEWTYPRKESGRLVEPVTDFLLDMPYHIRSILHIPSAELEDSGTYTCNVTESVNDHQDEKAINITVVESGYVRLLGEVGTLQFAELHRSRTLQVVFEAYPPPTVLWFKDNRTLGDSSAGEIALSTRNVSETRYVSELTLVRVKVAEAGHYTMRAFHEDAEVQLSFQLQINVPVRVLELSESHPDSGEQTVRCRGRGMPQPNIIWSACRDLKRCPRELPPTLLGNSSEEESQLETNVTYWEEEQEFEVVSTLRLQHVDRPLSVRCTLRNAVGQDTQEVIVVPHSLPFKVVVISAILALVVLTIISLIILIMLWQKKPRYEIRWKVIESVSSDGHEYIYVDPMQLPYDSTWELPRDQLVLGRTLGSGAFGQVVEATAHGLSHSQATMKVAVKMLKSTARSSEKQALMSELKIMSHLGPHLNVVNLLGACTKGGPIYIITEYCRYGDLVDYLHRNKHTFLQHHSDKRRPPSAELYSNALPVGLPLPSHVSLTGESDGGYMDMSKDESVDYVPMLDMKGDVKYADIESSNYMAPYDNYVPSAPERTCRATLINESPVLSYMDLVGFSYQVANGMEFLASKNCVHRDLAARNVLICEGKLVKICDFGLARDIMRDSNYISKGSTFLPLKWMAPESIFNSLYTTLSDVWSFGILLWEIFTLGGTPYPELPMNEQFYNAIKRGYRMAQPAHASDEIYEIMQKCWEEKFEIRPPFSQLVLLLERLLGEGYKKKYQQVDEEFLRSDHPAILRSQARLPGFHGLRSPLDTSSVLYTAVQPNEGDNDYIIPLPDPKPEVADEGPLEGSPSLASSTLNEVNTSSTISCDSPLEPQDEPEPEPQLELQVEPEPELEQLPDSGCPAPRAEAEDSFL
Outline: as §1

[10] = biological target: T10, PRKCA (PKC alpha) (Homo sapiens, UniProt P17252)
T10 construct: purchased ThermoFisher (SelectScreen, Z'-LYTE)
Outline: as §1

[11] = biological target: T11, TBK1 (Homo sapiens, UniProt Q9UHD2)
T11 construct: purchased ThermoFisher (SelectScreen, Z'-LYTE)
T11 sequence (Q9UHD2 1-729): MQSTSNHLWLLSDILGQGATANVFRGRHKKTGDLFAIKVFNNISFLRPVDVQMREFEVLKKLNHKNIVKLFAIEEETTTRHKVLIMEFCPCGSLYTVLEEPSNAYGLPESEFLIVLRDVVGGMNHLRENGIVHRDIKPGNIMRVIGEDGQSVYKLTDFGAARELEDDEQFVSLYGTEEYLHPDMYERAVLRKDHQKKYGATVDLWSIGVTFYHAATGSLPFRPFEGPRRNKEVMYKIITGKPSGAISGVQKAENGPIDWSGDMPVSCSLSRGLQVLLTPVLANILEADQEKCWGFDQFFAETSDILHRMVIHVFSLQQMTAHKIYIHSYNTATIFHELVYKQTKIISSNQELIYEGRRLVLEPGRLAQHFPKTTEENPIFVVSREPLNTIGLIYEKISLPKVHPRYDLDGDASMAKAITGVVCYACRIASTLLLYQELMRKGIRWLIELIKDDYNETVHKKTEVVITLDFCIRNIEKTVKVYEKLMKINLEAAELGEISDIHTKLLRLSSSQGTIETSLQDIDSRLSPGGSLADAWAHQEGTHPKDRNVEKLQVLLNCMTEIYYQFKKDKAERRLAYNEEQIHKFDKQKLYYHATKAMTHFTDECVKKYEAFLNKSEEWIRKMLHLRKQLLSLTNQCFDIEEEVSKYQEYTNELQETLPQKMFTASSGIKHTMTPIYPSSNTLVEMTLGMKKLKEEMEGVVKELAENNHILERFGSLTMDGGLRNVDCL
Outline: as §1

[12] = biological target: T12, BMX (Homo sapiens, UniProt P51813)
T12 construct: purchased ThermoFisher (SelectScreen, Z'-LYTE)
T12 sequence (P51813 1-675): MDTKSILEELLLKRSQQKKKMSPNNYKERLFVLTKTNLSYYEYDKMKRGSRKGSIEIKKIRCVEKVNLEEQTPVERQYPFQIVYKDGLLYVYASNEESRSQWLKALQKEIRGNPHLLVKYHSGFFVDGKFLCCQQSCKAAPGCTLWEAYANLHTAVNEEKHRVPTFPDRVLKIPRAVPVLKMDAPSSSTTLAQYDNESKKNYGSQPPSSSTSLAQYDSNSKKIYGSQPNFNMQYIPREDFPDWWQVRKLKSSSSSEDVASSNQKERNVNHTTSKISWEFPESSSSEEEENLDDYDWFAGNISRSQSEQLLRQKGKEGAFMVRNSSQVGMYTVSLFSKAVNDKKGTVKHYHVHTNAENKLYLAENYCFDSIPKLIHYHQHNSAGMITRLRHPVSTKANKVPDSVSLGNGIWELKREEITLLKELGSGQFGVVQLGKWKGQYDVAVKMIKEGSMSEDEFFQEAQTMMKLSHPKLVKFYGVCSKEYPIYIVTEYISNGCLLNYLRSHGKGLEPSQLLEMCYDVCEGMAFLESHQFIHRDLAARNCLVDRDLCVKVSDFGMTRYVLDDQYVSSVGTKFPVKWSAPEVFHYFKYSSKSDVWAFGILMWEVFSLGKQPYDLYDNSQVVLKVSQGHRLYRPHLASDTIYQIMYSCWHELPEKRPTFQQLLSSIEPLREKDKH
Outline: as §1

T1 sequence (P49137 whole entry): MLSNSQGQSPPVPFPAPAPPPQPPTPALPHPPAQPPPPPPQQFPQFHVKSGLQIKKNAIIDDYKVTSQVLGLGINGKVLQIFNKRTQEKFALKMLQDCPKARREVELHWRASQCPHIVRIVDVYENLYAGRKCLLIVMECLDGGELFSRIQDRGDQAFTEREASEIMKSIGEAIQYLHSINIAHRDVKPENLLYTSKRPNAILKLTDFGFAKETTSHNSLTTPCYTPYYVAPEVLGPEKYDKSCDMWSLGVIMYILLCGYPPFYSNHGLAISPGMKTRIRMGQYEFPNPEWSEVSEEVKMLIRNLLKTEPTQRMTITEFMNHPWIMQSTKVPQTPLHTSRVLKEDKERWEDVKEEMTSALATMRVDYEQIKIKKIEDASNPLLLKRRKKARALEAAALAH
T2 sequence (P19784 whole entry): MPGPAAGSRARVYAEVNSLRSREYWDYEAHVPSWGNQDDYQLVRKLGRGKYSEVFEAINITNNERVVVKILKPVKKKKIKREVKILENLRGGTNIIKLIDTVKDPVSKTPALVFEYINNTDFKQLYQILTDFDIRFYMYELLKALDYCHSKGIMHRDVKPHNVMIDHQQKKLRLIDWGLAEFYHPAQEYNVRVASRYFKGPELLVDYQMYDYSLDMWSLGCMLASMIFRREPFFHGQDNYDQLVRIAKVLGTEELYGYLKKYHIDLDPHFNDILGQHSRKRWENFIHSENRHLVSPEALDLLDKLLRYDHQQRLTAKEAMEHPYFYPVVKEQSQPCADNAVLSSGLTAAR

In the case of `Cc1cc(Nc2nc(N)nn2C(=O)NC(C)C)ccc1Cl` [Compound 5], the inhibition at 10 µM [1] was 6.56%, the inhibition at 10 µM [2] was 1.46% and the inhibition at 10 µM [3] was -1.79%. The inhibition at 10 µM [4] was 5%, the inhibition at 10 µM [5] was -2.24% and the inhibition at 10 µM [6] was 57%. The inhibition at 10 µM [7] was -12%, the inhibition at 10 µM [8] was -0.441% and the inhibition at 10 µM [9] was 10%. For the same compound, the inhibition at 10 µM [10] was 7%, the inhibition at 10 µM [11] was 27% and the inhibition at 10 µM [12] was 19%.

In the case of `Cc1ncc(-c2nc(Nc3ccc(C(=O)NCCN4CCCCC4)cc3)ncc2F)n1C(C)C` [Compound 3], the inhibition at 10 µM [1] was 52%, the inhibition at 10 µM [2] was 77% and the inhibition at 10 µM [3] was 65%. It also gave an inhibition at 10 µM [4] of 23%, an inhibition at 10 µM [5] of 83% and an inhibition at 10 µM [6] of 91%. It also gave an inhibition at 10 µM [7] of 44%, an inhibition at 10 µM [8] of 10% and an inhibition at 10 µM [9] of 87%. For the same compound, the inhibition at 10 µM [10] was 102%, the inhibition at 10 µM [11] was 86% and the inhibition at 10 µM [12] was 68%.

In the case of “XMD8-92 [Compound 2, reference compound]”, the “MAPKAPK2 % Inhibition” value ([1]; 10 µM compound, ATP Km app) was 93%, the “CSNK2A2 (CK2 alpha 2) % Inhibition” value ([2]; 10 µM compound, ATP Km app) was -1.72% and the “PIM1 % Inhibition” value ([3]; 10 µM compound, ATP Km app) was 35%. For the same compound, the “DYRK4 % Inhibition” value ([4]; 10 µM compound, ATP Km app) was 1.2%, the “HIPK1 (Myak) % Inhibition” value ([5]; 10 µM compound, ATP Km app) was 6% and the “ABL1 % Inhibition” value ([6]; 10 µM compound, ATP Km app) was 72%. For the same compound, the “FRAP1 (mTOR) % Inhibition” value ([7]; 10 µM compound, ATP Km app) was -15%, the “NEK7 % Inhibition” value ([8]; 10 µM compound, ATP Km app) was 11% and the “PDGFRB (PDGFR beta) % Inhibition” value ([9]; 10 µM compound, ATP Km app) was 7%. The “PRKCA (PKC alpha) % Inhibition” value ([10]; 10 µM compound, ATP Km app) was 47%, the “TBK1 % Inhibition” value ([11]; 10 µM compound, ATP Km app) was 43% and the “BMX % Inhibition” value ([12]; 10 µM compound, ATP Km app) was 41%.

Source: PMC4854315, “Discovery of a novel allosteric inhibitor-binding site in ERK5: comparison with the canonical kinase hinge ATP-binding site” (Acta Crystallographica. Section D, Structural Biology, 2016)
